Experiment [1] has as its target Beta-3 adrenergic receptor (Homo sapiens, UniProt P13945). Nature of the experiment: Agonist activity at human cloned adrenergic beta3 receptor expressed in CHO cells assessed as increase in cAMP production after 2 days by radioimmunoassay. The format is functional, cell-based.
Experiment [2] concerns the target Beta-1 adrenergic receptor (Homo sapiens, UniProt P08588).
Description: Agonist activity at human cloned adrenergic beta-1 receptor expressed in CHO cells assessed as increase in cAMP production after 2 days by radioimmunoassay
Experiment [3] has as its target Beta-2 adrenergic receptor (Homo sapiens, UniProt P07550).
Description: Agonist activity at human cloned adrenergic beta2 receptor expressed in CHO cells assessed as increase in cAMP production after 2 days by radioimmunoassay
Experiment [4] relates to Mus musculus. Nature of the experiment: Hypoglycemic activity in diabetic kk mouse assessed as reduction in plasma glucose levels at 30 mg/kg, po administered for 4 days measured after 15 to 18 hrs by glucose oxidase method. Also on record: scale not given: the % may be the effect or the level left. The format is functional.

pEC50: −log10 of the molar value.

Beta-3 adrenergic receptor, sequence (P13945 whole entry): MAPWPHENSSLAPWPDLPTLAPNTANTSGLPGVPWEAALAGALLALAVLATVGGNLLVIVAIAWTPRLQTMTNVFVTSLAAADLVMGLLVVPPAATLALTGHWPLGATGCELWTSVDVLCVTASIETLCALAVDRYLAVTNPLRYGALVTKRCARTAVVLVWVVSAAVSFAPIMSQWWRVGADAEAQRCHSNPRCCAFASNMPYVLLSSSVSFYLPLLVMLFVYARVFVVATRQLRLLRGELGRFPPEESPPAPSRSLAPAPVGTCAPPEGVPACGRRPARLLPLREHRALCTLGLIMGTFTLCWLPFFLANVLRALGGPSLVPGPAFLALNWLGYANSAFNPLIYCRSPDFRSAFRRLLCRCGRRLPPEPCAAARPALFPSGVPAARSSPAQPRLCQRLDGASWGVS
Beta-1 adrenergic receptor, sequence (P08588 whole entry): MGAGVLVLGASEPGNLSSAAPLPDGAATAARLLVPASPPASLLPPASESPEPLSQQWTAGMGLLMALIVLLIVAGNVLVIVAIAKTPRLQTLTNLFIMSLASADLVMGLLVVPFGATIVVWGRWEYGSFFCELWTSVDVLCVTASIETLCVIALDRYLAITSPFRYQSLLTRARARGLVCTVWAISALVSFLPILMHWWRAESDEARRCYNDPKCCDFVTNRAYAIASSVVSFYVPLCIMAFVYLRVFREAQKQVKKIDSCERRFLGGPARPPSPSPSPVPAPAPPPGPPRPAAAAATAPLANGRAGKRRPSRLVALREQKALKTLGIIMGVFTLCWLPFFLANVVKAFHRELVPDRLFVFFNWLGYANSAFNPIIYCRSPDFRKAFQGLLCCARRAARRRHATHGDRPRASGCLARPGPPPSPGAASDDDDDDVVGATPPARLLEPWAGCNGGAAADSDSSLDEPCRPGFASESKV
Beta-2 adrenergic receptor, sequence (P07550 whole entry): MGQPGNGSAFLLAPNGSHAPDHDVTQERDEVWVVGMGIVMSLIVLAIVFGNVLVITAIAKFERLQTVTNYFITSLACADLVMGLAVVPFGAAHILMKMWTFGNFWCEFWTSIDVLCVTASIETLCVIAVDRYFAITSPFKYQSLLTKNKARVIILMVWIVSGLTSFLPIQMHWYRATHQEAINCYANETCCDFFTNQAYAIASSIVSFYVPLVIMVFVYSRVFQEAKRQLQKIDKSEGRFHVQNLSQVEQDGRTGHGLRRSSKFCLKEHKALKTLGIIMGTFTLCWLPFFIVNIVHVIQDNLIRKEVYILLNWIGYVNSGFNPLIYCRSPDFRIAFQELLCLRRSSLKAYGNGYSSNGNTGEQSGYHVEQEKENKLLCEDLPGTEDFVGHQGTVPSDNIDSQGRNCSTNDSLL

For the compound `O=C(Cc1ccncc1)Nc1ccc(CCNC[C@H](O)COc2ccc(O)cc2)cc1`, the pEC50 was 6.28 in experiment [1], 6.59 in experiment [2] and under 4.00 in experiment [3].
In the case of `O=C(Cc1cnccn1)Nc1ccc(CCNC[C@H](O)COc2ccc(O)cc2)cc1`, the pEC50 was 7.08 in experiment [1], 5.51 in experiment [2] and under 4.00 in experiment [3]. Further, the Activity in experiment [4] was determined as 13%.
With `O=C(Cc1cccc2ccccc12)Nc1ccc(CCNC[C@H](O)COc2ccc(O)cc2)cc1`, the results for the pEC50 in experiment [1], in experiment [2] and in experiment [3] were 6.33, 6.22 and under 4.00, respectively.
`O=S(=O)(Nc1ccc(CCNC[C@H](O)COc2ccc(O)cc2)cc1)c1ccccc1`: the pEC50 is 7.11 in experiment [1], 5.80 in experiment [2] and under 4.00 in experiment [3].
Consider `O=C(Cc1ccc2ccccc2n1)Nc1ccc(CCNC[C@H](O)COc2ccc(O)cc2)cc1`, for which the pEC50 in experiment [1] was 6.19; in experiment [2] it was 5.77; in experiment [3] it was under 4.00.
In the same order, the values of `O=C(Cc1ccc(Cl)cc1)Nc1ccc(CCNC[C@H](O)COc2ccc(O)cc2)cc1` are 5.92, 6.72 and under 4.00.
`O=C(Cc1ncccn1)Nc1ccc(CCNC[C@H](O)COc2ccc(O)cc2)cc1`: the figures for the pEC50 in experiment [1], in experiment [2] and in experiment [3] were 6.96, under 4.00 and under 4.00, respectively. The Activity in experiment [4] is 20%.
For the compound `COc1cccc(CC(=O)Nc2ccc(CCNC[C@H](O)COc3ccc(O)cc3)cc2)c1`, the pEC50 is 6.25 in experiment [1], 6.15 in experiment [2] and under 4.00 in experiment [3].
Consider `NC(C(=O)Nc1ccc(CCNC[C@H](O)COc2ccc(O)cc2)cc1)c1ccccc1` (some centres not stated), for which the negative logarithm of the EC50 (pEC50) in experiment [1] is 6.02; in experiment [2], 6.18; in experiment [3], under 4.00.
The corresponding values for `O=C(Cc1cccs1)Nc1ccc(CCNC[C@H](O)COc2ccc(O)cc2)cc1` are 6.30, 6.26 and under 4.00.
The corresponding values for `O=C(Cc1ccccc1)Nc1ccc(CCNC[C@H](O)COc2ccc(O)cc2)cc1` are 5.77, 6.12 and under 4.00.
In the same order, the values of `O=C(Cc1ccccc1Cl)Nc1ccc(CCNC[C@H](O)COc2ccc(O)cc2)cc1` are 6.13, 6.14 and under 4.00.
For the compound `O=C(Cc1cc2ccccc2cn1)Nc1ccc(CCNC[C@H](O)COc2ccc(O)cc2)cc1`, the figures for the negative-log EC50 (pEC50) in experiment [1], in experiment [2] and in experiment [3] were 6.85, 6.46 and under 4.00, respectively.
In the same order, the values of `COc1ccc(CC(=O)Nc2ccc(CCNC[C@H](O)COc3ccc(O)cc3)cc2)cc1` are 5.77, 6.55 and under 4.00.
The corresponding values for `O=C(Nc1ccc(CCNC[C@H](O)COc2ccc(O)cc2)cc1)C(O)c1ccccc1` (some centres not stated) are 6.02, 6.23 and under 4.00.
In the same order, the values of `O=C(CC1C=Nc2ccccc21)Nc1ccc(CCNC[C@H](O)COc2ccc(O)cc2)cc1` (some centres not stated) are 6.31, 6.26 and under 4.00.
As for `COc1ccccc1CC(=O)Nc1ccc(CCNC[C@H](O)COc2ccc(O)cc2)cc1`, the pEC50 in experiment [1] is 6.44; in experiment [2], 6.02; in experiment [3], under 4.00.
In the same order, the values of `O=C(Cc1cccnc1)Nc1ccc(CCNC[C@H](O)COc2ccc(O)cc2)cc1` are 5.82, 6.04 and under 4.00.
`O=C(Cc1cccc(Cl)c1)Nc1ccc(CCNC[C@H](O)COc2ccc(O)cc2)cc1`: the pEC50 in experiment [1] was 6.05; in experiment [2], 7.08; in experiment [3], under 4.00.
Take `O=C(Cc1ccccn1)Nc1ccc(CCNC[C@H](O)COc2ccc(O)cc2)cc1`: the pEC50 in experiment [1] is 6.54; in experiment [2], 5.57; in experiment [3], under 4.00. In addition, in experiment [4], the Activity turned out to be 32%.
Turning to `O=C(Nc1ccc(CCNC[C@H](O)COc2ccc(O)cc2)cc1)C(c1ccccc1)c1ccccc1`, the pEC50 in experiment [1] was 6.92; in experiment [2], 6.74; in experiment [3] it was under 4.00.
The corresponding values for `O=C(Cc1ccsc1)Nc1ccc(CCNC[C@H](O)COc2ccc(O)cc2)cc1` are 6.26, 6.31 and under 4.00.
In the same order, the values of `O=C(Cc1ccc2ccccc2c1)Nc1ccc(CCNC[C@H](O)COc2ccc(O)cc2)cc1` are 6.62, 6.82 and under 4.00.

The record behind these values is ChEMBL document CHEMBL1158395, “Discovery of novel acetanilide derivatives as potent and selective beta3-adrenergic receptor agonists” (Eur J Med Chem, 2009).
